Laboratory results from patent US12258355B2, “Probes for imaging huntingtin protein” (CHDI Foundation, Inc., priority 2014, dated 2025).

Target: T1, Q46 protein aggregates (Homo sapiens, UniProt P42858)
T1 construct: fused on or other part: GST at the N-terminus, cut off with thrombin before the test to start aggregation; The wells held aggregated Q46 without GST
Assay: Q46 radioligand binding assay (RBA)
Conditions: 10 nM ligand [3H3]MK-3328
Outline: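 Aggregates from thrombin-cleaved GST-Q46 (16 h, 37° C) at 5 μM monomer-equivalent were pre-incubated 20 min at room temperature with compound (1 μM to 30 pM) in 150 mM NaCl, 50 mM Tris pH 8.0, then 60 min at 37° C with 10 nM [^3H3]MK-3328. Bound radioactivity was filtered and counted; IC50 came from a four-parameter global fit normalized to vehicle and 3 μM unlabelled MK-3328.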

T1 sequence (P42858 with tags, fused parts or gaps with the stated changes, form open): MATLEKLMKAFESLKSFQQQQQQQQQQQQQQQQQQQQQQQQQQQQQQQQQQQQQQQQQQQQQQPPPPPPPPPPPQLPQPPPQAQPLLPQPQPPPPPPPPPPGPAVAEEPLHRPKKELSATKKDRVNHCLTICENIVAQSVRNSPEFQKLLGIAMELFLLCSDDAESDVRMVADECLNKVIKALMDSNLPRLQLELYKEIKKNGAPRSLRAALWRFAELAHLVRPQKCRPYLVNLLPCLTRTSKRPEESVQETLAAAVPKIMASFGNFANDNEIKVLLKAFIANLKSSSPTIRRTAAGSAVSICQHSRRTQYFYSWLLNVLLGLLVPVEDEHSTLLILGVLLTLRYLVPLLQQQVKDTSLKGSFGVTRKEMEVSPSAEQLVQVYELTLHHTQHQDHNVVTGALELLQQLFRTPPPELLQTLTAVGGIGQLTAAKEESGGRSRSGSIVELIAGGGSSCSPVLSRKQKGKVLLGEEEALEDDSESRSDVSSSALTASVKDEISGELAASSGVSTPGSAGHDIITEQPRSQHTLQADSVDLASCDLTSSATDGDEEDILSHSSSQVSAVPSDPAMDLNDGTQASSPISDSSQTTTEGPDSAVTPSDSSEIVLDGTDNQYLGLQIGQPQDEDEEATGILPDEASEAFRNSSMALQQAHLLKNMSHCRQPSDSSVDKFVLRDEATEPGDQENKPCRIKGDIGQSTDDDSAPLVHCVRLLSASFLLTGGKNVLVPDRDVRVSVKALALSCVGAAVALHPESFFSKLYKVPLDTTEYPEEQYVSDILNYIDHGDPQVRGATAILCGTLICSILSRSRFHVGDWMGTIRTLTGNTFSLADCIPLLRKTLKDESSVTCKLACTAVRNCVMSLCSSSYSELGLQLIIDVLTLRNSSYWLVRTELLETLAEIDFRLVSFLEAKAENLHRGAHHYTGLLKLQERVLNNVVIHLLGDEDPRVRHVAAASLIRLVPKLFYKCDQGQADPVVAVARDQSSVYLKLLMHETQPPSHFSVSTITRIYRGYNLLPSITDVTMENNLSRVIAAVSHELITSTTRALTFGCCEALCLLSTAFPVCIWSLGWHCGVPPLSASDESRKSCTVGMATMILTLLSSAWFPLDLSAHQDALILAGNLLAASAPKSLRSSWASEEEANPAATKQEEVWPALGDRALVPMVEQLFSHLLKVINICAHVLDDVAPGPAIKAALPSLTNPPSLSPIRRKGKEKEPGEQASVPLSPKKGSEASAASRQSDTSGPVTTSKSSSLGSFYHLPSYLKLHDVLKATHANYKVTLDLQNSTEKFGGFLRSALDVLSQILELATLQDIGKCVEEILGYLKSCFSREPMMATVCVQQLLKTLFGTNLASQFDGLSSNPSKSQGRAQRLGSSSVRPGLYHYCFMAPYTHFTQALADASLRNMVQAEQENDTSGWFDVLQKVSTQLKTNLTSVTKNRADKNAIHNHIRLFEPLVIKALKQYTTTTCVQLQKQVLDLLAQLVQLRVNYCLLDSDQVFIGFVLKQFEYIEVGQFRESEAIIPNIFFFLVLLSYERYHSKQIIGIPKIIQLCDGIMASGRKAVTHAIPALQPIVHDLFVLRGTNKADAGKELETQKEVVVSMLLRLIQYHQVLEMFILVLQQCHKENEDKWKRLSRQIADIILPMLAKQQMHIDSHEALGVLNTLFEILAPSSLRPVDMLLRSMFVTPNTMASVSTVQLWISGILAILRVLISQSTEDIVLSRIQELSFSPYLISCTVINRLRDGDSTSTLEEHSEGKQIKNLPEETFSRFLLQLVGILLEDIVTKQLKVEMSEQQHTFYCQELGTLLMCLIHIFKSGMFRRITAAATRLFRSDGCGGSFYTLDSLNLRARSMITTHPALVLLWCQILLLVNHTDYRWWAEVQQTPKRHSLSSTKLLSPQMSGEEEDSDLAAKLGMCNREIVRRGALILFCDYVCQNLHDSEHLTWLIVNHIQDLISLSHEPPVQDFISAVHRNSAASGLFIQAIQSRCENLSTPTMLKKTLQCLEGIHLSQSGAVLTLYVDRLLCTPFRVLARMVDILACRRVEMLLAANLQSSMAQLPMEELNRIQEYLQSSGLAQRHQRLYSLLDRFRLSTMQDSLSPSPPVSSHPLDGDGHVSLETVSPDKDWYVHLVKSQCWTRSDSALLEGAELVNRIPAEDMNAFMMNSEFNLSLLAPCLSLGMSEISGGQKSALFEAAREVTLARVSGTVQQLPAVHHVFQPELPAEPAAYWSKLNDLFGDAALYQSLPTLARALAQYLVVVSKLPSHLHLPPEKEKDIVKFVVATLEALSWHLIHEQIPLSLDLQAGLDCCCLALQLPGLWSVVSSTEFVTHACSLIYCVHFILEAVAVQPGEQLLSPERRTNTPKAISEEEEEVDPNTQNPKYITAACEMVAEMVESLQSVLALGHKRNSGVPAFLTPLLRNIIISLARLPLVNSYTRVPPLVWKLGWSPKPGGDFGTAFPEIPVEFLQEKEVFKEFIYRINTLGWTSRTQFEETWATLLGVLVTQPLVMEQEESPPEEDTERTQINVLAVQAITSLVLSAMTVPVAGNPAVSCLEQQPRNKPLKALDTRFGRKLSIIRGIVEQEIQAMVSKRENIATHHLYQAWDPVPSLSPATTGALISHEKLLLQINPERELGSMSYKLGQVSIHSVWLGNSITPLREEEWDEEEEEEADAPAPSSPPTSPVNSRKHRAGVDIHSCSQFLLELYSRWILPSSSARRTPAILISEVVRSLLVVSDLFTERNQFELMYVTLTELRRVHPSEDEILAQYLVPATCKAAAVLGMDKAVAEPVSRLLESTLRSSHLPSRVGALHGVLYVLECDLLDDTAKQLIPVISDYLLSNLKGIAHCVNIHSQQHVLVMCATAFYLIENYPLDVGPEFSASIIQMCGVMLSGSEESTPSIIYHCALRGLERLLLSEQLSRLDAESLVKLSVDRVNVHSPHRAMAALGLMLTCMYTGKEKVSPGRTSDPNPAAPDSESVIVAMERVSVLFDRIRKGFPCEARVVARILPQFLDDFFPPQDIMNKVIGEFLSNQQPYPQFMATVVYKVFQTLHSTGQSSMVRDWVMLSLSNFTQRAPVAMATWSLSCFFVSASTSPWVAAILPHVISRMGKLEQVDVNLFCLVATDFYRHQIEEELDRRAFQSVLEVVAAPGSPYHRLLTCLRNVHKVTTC

Structure (SMILES)	IC50
COc1ccc(Nc2ccc3oc(-c4cccnc4)nc3c2)cc1 [N-(4-methoxyphenyl)-2-(pyridin-3-yl)-1,3-benzoxazol-5-amine]	100 to 500 nM
COc1cncc(NC(=O)c2ccc3oc(-c4cccnc4)nc3c2)c1 [N-(5-methoxypyridin-3-yl)-2-(pyridin-3-yl)-1,3-benzoxazole-5-carboxamide]	< 100 nM
COc1ccc(COc2ccc3oc(-c4ccc(NC(C)=O)nc4)nc3c2)nc1 [N-(5-{5-[(5-methoxypyridin-2-yl)methoxy]-1,3-benzoxazol-2-yl}pyridin-2-yl)acetamide]	< 100 nM
O=C(Nc1ccc2oc(-c3cccnc3)nc2c1)c1cc2ccccc2o1 [N-[2-(pyridin-3-yl)-1,3-benzoxazol-5-yl]-1-benzofuran-2-carboxamide]	< 100 nM
O=C(Nc1ccc2oc(-c3cccnc3)nc2c1)c1ccc2occc2c1 [N-[2-(pyridin-3-yl)-1,3-benzoxazol-5-yl]-1-benzofuran-5-carboxamide]	< 100 nM
O=C(Nc1ccc2oc(-c3cccnc3)nc2c1)C1Cc2ccccc2O1 (stereo not drawn) [N-[2-(pyridin-3-yl)-1,3-benzoxazol-5-yl]-2,3-dihydro-1-benzofuran-2-carboxamide]	< 100 nM
O=C(Nc1ccc2oc(-c3cccnc3)nc2c1)c1ccc2c(c1)OCO2 [N-[2-(pyridin-3-yl)-1,3-benzoxazol-5-yl]-2H-1,3-benzodioxole-5-carboxamide]	< 100 nM
O=C(Nc1ccc2oc(-c3cccnc3)nc2c1)c1ccc(-c2ncccn2)cc1 [N-[2-(pyridin-3-yl)-1,3-benzoxazol-5-yl]-4-(pyrimidin-2-yl)benzamide]	< 100 nM
O=C(Nc1ccc2oc(-c3cccnc3)nc2c1)c1ccc(C(F)(F)F)nc1 [N-[2-(pyridin-3-yl)-1,3-benzoxazol-5-yl]-6-(trifluoromethyl)pyridine-3-carboxamide]	< 100 nM
O=C(Nc1ccc2oc(-c3cccnc3)nc2c1)c1ccc2ccccc2n1 [N-[2-(pyridin-3-yl)-1,3-benzoxazol-5-yl]quinoline-2-carboxamide]	< 100 nM
O=C(Nc1ccc2oc(-c3cccnc3)nc2c1)c1cnc2ccccc2n1 [N-[2-(pyridin-3-yl)-1,3-benzoxazol-5-yl]quinoxaline-2-carboxamide]	< 100 nM
O=C(Nc1ccc2oc(-c3cccnc3)nc2c1)c1ccc2nccnc2c1 [N-[2-(pyridin-3-yl)-1,3-benzoxazol-5-yl]quinoxaline-6-carboxamide]	< 100 nM
COc1ccc(CNc2ccc3oc(-c4cccnc4)nc3c2)cc1 [N-[(4-methoxyphenyl)methyl]-2-(pyridin-3-yl)-1,3-benzoxazol-5-amine]	< 100 nM
CNc1ccc(COc2ccc3oc(-c4cccnc4)nc3c2)nc1 [N-methyl-6-({[2-(pyridin-3-yl)-1,3-benzoxazol-5-yl]oxy}methyl)pyridin-3-amine]	< 100 nM
CNCc1cccc(-c2nc3cc(OCc4ccc(OC)cn4)ccc3o2)c1 [[(3-{5-[(5-methoxypyridin-2-yl)methoxy]-1,3-benzoxazol-2-yl}phenyl)methyl](methyl)amine]	< 100 nM
COc1ccc(COc2ccc3oc(-c4cccc(CN(C)C)c4)nc3c2)nc1 [[(3-{5-[(5-methoxypyridin-2-yl)methoxy]-1,3-benzoxazol-2-yl}phenyl)methyl]dimethylamine]	< 100 nM
CNCc1cncc(-c2nc3cc(OCc4ccc(OC)cn4)ccc3o2)c1 [[(5-{5-[(5-methoxypyridin-2-yl)methoxy]-1,3-benzoxazol-2-yl}pyridin-3-yl)methyl](methyl)amine]	< 100 nM
CN(C)CCOc1ccc(COc2ccc3oc(-c4cccnc4)nc3c2)cc1 [dimethyl({2-[4-({[2-(pyridin-3-yl)-1,3-benzoxazol-5-yl]oxy}methyl)phenoxy]ethyl})amine]	100 to 500 nM
CN(C)CCCOc1ccc(COc2ccc3oc(-c4cccnc4)nc3c2)cc1 [dimethyl({3-[4-({[2-(pyridin-3-yl)-1,3-benzoxazol-5-yl]oxy}methyl)phenoxy]propyl})amine]	< 100 nM
CNCc1ccc(COc2ccc3oc(-c4cccnc4)nc3c2)cc1 [methyl({[4-({[2-(pyridin-3-yl)-1,3-benzoxazol-5-yl]oxy}methyl)phenyl]methyl})amine]	100 to 500 nM
CC(C)(C)OC(=O)N1CCN(c2ccc3oc(-c4cccnc4)nc3c2)CC1 [tert-butyl 4-[2-(pyridin-3-yl)-1,3-benzoxazol-5-yl]piperazine-1-carboxylate]	100 to 500 nM
